Assay results: patent US12715846B2, “Crystal form of quinolinone compound and use thereof” (SUNSHINE LAKE PHARMA CO., LTD., priority 2019, dated 2026)
Blank lines part the entries; values can stand above or below the molecule they belong to.

Legend:
[1] = Pharmacokinetic experiment of the crystal form in Beagle dogs; type: in vivo
Procedure: The crystal form of the compound of formula (I) of the present invention is filled into capsules for oral administration.
8-12 kg male Beagle dogs were taken, and 3 as a group. Capsules containing the test sample were orally administered at a dose of 10 mg/kg and the bloods were collected at time points of 0.25, 0.5, 1.0, 2.0, 4.0, 6.0, 8.0 and 24 h. Standard curve was plotted based on concentrations of the samples in a suitable range, the concentration of the test sample in the plasma sample was measured and quantified by AB SCIEX API4000 LC-MS/MS at MRM mode. Pharmacokinetic parameters were calculated according to drug concentration-time curve using a noncompartmental method by WinNonLin 6.3 software.

[2] = Stability: high-temperature experiment; type: physicochemical; conditions: for Purity: HPLC
Procedure: (1) High-temperature experiment: appropriate amount of the test sample was added into a flat weighing bottle, divided into ≤5 mm thick thin layer. The bottle was placed at 60° C.±2° C. for 30 days. Samples were taken on the 6th, 10th, and 30th day, and tested according to the key stability inspection items: the color of the samples were observed, the purities of the samples were determined by HPLC.

[3] = Stability: high-humidity experiment; type: physicochemical; conditions: for Appearance / Purity: High humidity (RH92.5%); for Purity: HPLC
Procedure: (2) High-humidity experiment: a batch of the test sample was added into a flat weighing bottle, divided into ≤5 mm thick thin layer. The bottle was placed at 25° C. and RH for 90%±5% for 30 days. Samples were taken on the 6th, 10th, and 30th day, and tested according to the key stability inspection items: the color of the samples were observed, the purities of the samples were determined by HPLC.

[4] = Stability: illumination experiment; type: physicochemical; conditions: for Appearance / Purity: Illumination; for Purity: HPLC
Procedure: (3) Illumination experiment: a batch of the test sample was added into a flat weighing bottle, divided into ≤5mm thick thin layer. The bottle was opened and placed in a light box (with UV lamp) under the condition of illuminance of 4500±500 lx and ultraviolet light ≥0.7w/m^2 for 30 days. Samples were taken on the 6th, 13th, and 30th day, the purities of the samples were determined by HPLC.

[5] = Stability: accelerated experiment; type: physicochemical; conditions: for Appearance / Purity / Moisture content: 40 ± 2° C./75% ± 5% RH; for Purity: HPLC; for Moisture content: by TGA
Procedure: (4) Accelerated experiment: appropriate amount of the test sample was packed with a single-layer PE and aluminum foil, the sample was placed at 40±2° C./75%±5% RH for 6 months. Samples were taken on the 1st, 2nd, 3rd and 6th month. The color of the samples were observed, the purities of the samples were determined by HPLC, and the moisture content was determined by TGA.

[6] = Hygroscopicity experiment (dynamic moisture adsorption, DVS); type: physicochemical
Procedure: The hygroscopicity of the present invention was measured by a DVS INT-Std dynamic moisture and gas adsorption analyzer from Surface Measurement Systems, UK. The humidity test range was 0%-95%, the airflow rate was 200 mL/min, and the temperature was 25° C. One test point was taken for every 5% increase in humidity.
An appropriate amount of the test sample was taken, the hygroscopicity was tested by dynamic moisture adsorption device.

[7] = Crystal form stability on standing under normal temperature and pressure; type: physicochemical; conditions: normal temperature and pressure conditions
Solubility experiment = type: physicochemical; conditions: comparison in words, values not given
Procedure: The solubility of the present invention was determined using an Agilent 1200 High Performance Liquid Chromatograph DAD/VWD detector with an Agilent XDB-C18 model (4.6×50 mm, 5 μm). The detection wavelength was 266 nm, the flow rate was 1.0 mL/min, and the column temperature was 35° C. The mobile phase A was acetonitrile−0.01 M ammonium acetate=10:90 (V:V), and the analysis method was acetonitrile−mobile phase A=70:30 (V:V). The running time was 10 minutes.

[8] = dog, plasma, po, male Beagle dogs, capsules orally, 10 mg/kg
[9] = 0 day (start, common to all conditions of Table 2)
[10] = High temperature (60° C.), 6th day
[11] = High temperature (60° C.), 10th day
[12] = High temperature (60° C.), 30th day

- exposure in beagle dogs ([1]; beagle dogs, oral capsules 10 mg/kg, conclusion from Table 1): larger exposure
- AUC(0-t) [1, 8]: 9300 ng·h/mL
- Cmax [1, 8]: 2810 ng/mL
- Tmax [1, 8]: 1.17 h
- Appearance [2, 9]: off-white
- Purity [2, 9]: 99.76%
- Appearance [2, 10]: off-white
- Purity [2, 10]: 99.77%
- Appearance [2, 11]: off-white
- Purity [2, 11]: 99.78%
- Appearance [2, 12]: off-white
- Purity [2, 12]: 99.77%
- change of appearance and purity ([2]; high temperature (60° C.), 30 days): no obvious changes
- Appearance ([3]; 6th day): off-white
- Purity ([3]; 6th day): 99.78%
- Appearance ([3]; 10th day): off-white
- Purity ([3]; 10th day): 99.77%
- Appearance ([3]; 30th day): off-white
- Purity ([3]; 30th day): 99.76%
- change of appearance and purity ([3]; high humidity (25° C., RH 90%±5%), 30 days): no obvious changes
- Appearance ([4]; 6th day): off-white
- Purity ([4]; 6th day): 99.77%
- Appearance ([4]; 13th day): off-white
- Purity ([4]; 13th day): 99.77%
- Appearance ([4]; 30th day): off-white
- Purity ([4]; 30th day): 99.72%
- change of appearance and purity ([4]; lighting conditions, 30 days): no obvious changes
- Appearance ([5]; 0 month): off-white
- Purity ([5]; 0 month): 99.78%
- Moisture content ([5]; 0 month): 0.04%
- Appearance ([5]; 1st month): off-white
- Purity ([5]; 1st month): 99.77%
- Moisture content ([5]; 1st month): 0.06%
- Appearance ([5]; 2nd month): off-white
- Purity ([5]; 2nd month): 99.78%
- Moisture content ([5]; 2nd month): 0.07%
- Appearance ([5]; 3rd month): off-white
- Purity ([5]; 3rd month): 99.78%
- Moisture content ([5]; 3rd month): 0.08%
- Appearance ([5]; 6th month): off-white
- Purity ([5]; 6th month): 99.78%
- Moisture content ([5]; 6th month): 0.12%
- change of appearance, purity and moisture content ([5]; accelerated experimental conditions (40±2° C./75%±5% RH, 6 months)): no obvious changes
- hygroscopicity feature ([6]; Chinese Pharmacopoeia 2015 General Principle 9103 classes (Table 5)): lightly hygroscopic
- Weight gain at 60% relative humidity ([6]; DVS, 25° C., 60% relative humidity): 0.27%
- Weight gain at 80% relative humidity ([6]; DVS, 25° C., 80% relative humidity): 0.38%
- Weight gain at 95% relative humidity ([6]; DVS, 25° C., 95% relative humidity): 0.57%
- crystal transformation on standing ([7]; listed as crystal form I): does not undergo crystal transformation
- solubility compared with crystal form II (Solubility experiment): better solubility
SMILES: Cn1c(=O)c(C(=O)NCC(=O)O)c(O)c2ccc(Oc3ccccc3)cc21 [Example 1, 2-(4-hydroxy-1-methyl-2-oxo-7-phenoxy-1,2-dihydroquinoline-3-carboxamido)acetic acid]

- crystal transformation on standing [7]: easy to undergo crystal transformation
SMILES: Cn1c(=O)c(C(=O)NCC(=O)O)c(O)c2ccc(Oc3ccccc3)cc21 [crystal form II, 2-(4-hydroxy-1-methyl-2-oxo-7-phenoxy-1,2-dihydroquinoline-3-carboxamido)acetic acid]
